In US20240043456A1 (Unity Biotechnology, Inc., priority 2020, published 2024):

Key:
[1] = Chemical stability of free acid and salts during salt preparation; type: physicochemical
[2] = 12-month stability test, HPLC; type: physicochemical; parameters: HPLC result, RRT 1.09: unit not given beside the values; settings: for HPLC result, RRT 0.86 / HPLC result, RRT 0.94 / HPLC result, RRT 1 / HPLC result, RRT 1.05 / HPLC result, RRT 1.09 / HPLC result, RRT 1.15 / HPLC result, RRT 1.27 / HPLC result, RRT 1.29 / HPLC result, RRT 1.65: 2-8° C.

Nc1cc(Cl)nc(C(=O)[O-])c1Cl.[K+] [potassium salt]
unstable: stability of the salt [1]

(R)-5-(4-chlorophenyl)-1-isopropyl-2-methyl-4-(3-(4-(4-((4-((1-(phenylthio)-4-(4-((phosphonooxy)methyl)piperidin-1-yl)butan-2-yl)amino)-3-((trifluoromethyl)sulfonyl)phenyl)sulfonamido)phenyl)piperazin-1-yl)phenyl)-1H-pyrrole-3-carboxylic acid meglumine salt
0.22: HPLC result, RRT 1.29 ([2]; T0)
0.08: HPLC result, RRT 1.09 ([2]; 2 months) | HPLC result, RRT 1.09 ([2]; 3 months) | HPLC result, RRT 0.86 ([2]; 9 months) | HPLC result, RRT 0.86 ([2]; 12 months)
99.6: HPLC result, RRT 1 ([2]; T0)
<0.05: HPLC result, RRT 1.05 ([2]; 1 month) | HPLC result, RRT 1.15 ([2]; 1 month) | HPLC result, RRT 1.27 ([2]; 1 month) | HPLC result, RRT 1.05 ([2]; 2 months) | HPLC result, RRT 1.15 ([2]; 2 months) | HPLC result, RRT 1.27 ([2]; 2 months) | HPLC result, RRT 0.86 ([2]; 2 weeks) | HPLC result, RRT 1.05 ([2]; 2 weeks) | HPLC result, RRT 1.15 ([2]; 2 weeks) | HPLC result, RRT 1.27 ([2]; 2 weeks) | HPLC result, RRT 1.65 ([2]; 2 weeks) | HPLC result, RRT 0.94 ([2]; 3 months) | HPLC result, RRT 1.05 ([2]; 3 months) | HPLC result, RRT 1.15 ([2]; 3 months) | HPLC result, RRT 1.27 ([2]; 3 months) | HPLC result, RRT 1.65 ([2]; 3 months) | HPLC result, RRT 1.15 ([2]; 6 months) | HPLC result, RRT 1.27 ([2]; 6 months) | HPLC result, RRT 1.65 ([2]; 6 months) | HPLC result, RRT 1.15 ([2]; 9 months) | HPLC result, RRT 1.65 ([2]; 9 months) | HPLC result, RRT 1.05 ([2]; 12 months) | HPLC result, RRT 1.09 ([2]; 12 months) | HPLC result, RRT 1.05 ([2]; T0) | HPLC result, RRT 1.15 ([2]; T0) | HPLC result, RRT 1.27 ([2]; T0) | HPLC result, RRT 1.65 ([2]; T0)
99.3: HPLC result, RRT 1 ([2]; 6 months)
0.1: HPLC result, RRT 1.27 ([2]; 9 months)
0.38: HPLC result, RRT 1.29 ([2]; 1 month) | HPLC result, RRT 1.29 ([2]; 2 weeks)
0.06: HPLC result, RRT 0.94 ([2]; 6 months) | HPLC result, RRT 1.09 ([2]; 6 months) | HPLC result, RRT 0.94 ([2]; 9 months) | HPLC result, RRT 0.94 ([2]; 12 months) | HPLC result, RRT 0.86 ([2]; T0) | HPLC result, RRT 1.09 ([2]; T0)
0.41: HPLC result, RRT 1.29 ([2]; 9 months)
99.2: HPLC result, RRT 1 ([2]; 9 months)
99.5: HPLC result, RRT 1 ([2]; 3 months)
0.36: HPLC result, RRT 1.29 ([2]; 3 months)
0.09: HPLC result, RRT 0.86 ([2]; 3 months) | HPLC result, RRT 1.09 ([2]; 9 months) | HPLC result, RRT 1.27 ([2]; 12 months)
0.14: HPLC result, RRT 1.29 ([2]; 12 months)
little to no change: change in purity over test period (FIG. 20) ([2]; 12 month test period)
0.05: HPLC result, RRT 0.86 ([2]; 1 month) | HPLC result, RRT 0.86 ([2]; 2 months) | HPLC result, RRT 0.86 ([2]; 6 months) | HPLC result, RRT 1.05 ([2]; 6 months)
0.44: HPLC result, RRT 1.29 ([2]; 6 months)
0.40: HPLC result, RRT 1.29 ([2]; 2 months)
99.4: HPLC result, RRT 1 ([2]; 1 month) | HPLC result, RRT 1 ([2]; 2 months) | HPLC result, RRT 1 ([2]; 2 weeks) | HPLC result, RRT 1 ([2]; 12 months)
0.07: HPLC result, RRT 0.94 ([2]; 1 month) | HPLC result, RRT 1.09 ([2]; 1 month) | HPLC result, RRT 0.94 ([2]; 2 months) | HPLC result, RRT 0.94 ([2]; 2 weeks) | HPLC result, RRT 1.09 ([2]; 2 weeks) | HPLC result, RRT 1.05 ([2]; 9 months) | HPLC result, RRT 1.15 ([2]; 12 months) | HPLC result, RRT 0.94 ([2]; T0)
0.18: HPLC result, RRT 1.65 ([2]; 12 months)
chemically stable: chemical stability ([1]; under experimental conditions)
